From patent publication US9242981B2, “Fused pyrazole derivatives as novel ERK inhibitors” (Merck Sharp & Dohme Corp., priority 2010, dated 2016) come the findings set out here.

The test deals with Mouse ERK2 protein (Mus musculus (Mouse), UniProt P63085). Kind of test: Coupled MEK1/ERK2 IMAP assay or Active ERK2 IMAP assay. It counts as biochemical. As to conditions: Table 1, class symbols, 30 μM ATP. Here is the method: 14 μl of kinase buffer (10 mM Tris.HCl pH 7.2, 10 mM MgCl2, 0.01% Tween-20, 1 mM DTT) containing 0.4 ng unphosphorylated Mouse ERK2 protein is added to each well of a black 384-well assay plate. […] DMSO concentration during initial incubation is 6.7%. […] DMSO concentration during ERK activation was 4%. After one hour, reactions are terminated by addition of 60 μl IMAP detections beads in binding buffer (Molecular Devices). Binding is allowed to equilibrate for 30 minutes before reading the plate on an LJL Analyst Fluorescence Polarization plate reader.
Chain of Mouse ERK2 protein (P63085 whole entry): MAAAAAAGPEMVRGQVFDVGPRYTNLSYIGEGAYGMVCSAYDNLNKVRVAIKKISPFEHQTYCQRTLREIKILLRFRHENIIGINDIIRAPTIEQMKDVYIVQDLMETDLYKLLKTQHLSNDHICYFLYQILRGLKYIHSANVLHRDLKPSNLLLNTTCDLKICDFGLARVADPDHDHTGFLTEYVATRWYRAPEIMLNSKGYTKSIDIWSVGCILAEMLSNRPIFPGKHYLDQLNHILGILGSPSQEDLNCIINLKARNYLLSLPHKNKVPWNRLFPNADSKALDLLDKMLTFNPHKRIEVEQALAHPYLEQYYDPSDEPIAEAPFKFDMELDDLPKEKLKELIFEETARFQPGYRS
Activated ERK2 activity was also determined in the IMAP assay format using the procedure outlined above. […] Reactions proceeded for 30 minutes before termination by addition of […] IMAP detection beads in binding buffer. Plates were read as above after 30 minute binding equilibration.

Each structure is given as a SMILES string. pIC50: −log10 of the molar value.

For the compound `CC(C)(C)OC(=O)N1C[C@@H](NC(=O)N2CCc3[nH]nc(-c4ccncc4)c3C2)[C@H](c2cccc(-c3ccccc3)c2)C1` (racemic) [Compound 165, 1,1-dimethylethyl trans-3-[1,1′-biphenyl]-3-yl-4-[[[1,4,6,7-tetrahydro-3-(4-pyridinyl)-5H-pyrazolo[4,3-c]pyridin-5-yl]carbonyl]amino]-1-pyrrolidinecarboxylate], the pIC50 was 6.00 to 7.00.

The compound `O=C(N[C@@H]1CNC[C@H]1c1cccc(-c2ccccc2)c1)N1CCc2[nH]nc(-c3ccncc3)c2C1` (racemic) [Compound 167, N-[trans-4-[1,1′-biphenyl]-3-yl-3-pyrrolidinyl]-1,4,6,7-tetrahydro-3-(4-pyridinyl)-5H-pyrazolo[4,3-c]pyridine-5-carboxamide] showed a pIC50 greater than 7.70.

`CN1C[C@@H](NC(=O)N2CCc3[nH]nc(-c4ccncc4)c3C2)[C@H](c2cccc(-c3ccccc3)c2)C1` (racemic) [Compound 169, N-[trans-4-[1,1′-biphenyl]-3-yl-1-methyl-3-pyrrolidinyl]-1,4,6,7-tetrahydro-3-(4-pyridinyl)-5H-pyrazolo[4,3-c]pyridine-5-carboxamide] had a pIC50 greater than 7.70.

For `O=C(N[C@@H]1CCCNC1)N1CCc2[nH]nc(-c3ccncc3)c2C1` (single isomer, unassigned) [Compound 171], the pIC50 was 6.00 to 7.00.

For the compound `O=C(N[C@@H]1CCCN(Cc2ccccc2)C1)N1CCc2[nH]nc(-c3ccncc3)c2C1` (single isomer, unassigned) [Compound 175], the pIC50 is greater than 7.70.

Regarding `O=C(NC1CC[C@H]2CC[C@@H]1N2Cc1c(F)cccc1F)N1CCc2[nH]nc(-c3ccc4nccn4c3)c2C1` (stereo in doubt) [Compound 182, N-[8-[(2,6-difluorophenyl)methyl]-8-azabicyclo[3.2.1]oct-2-yl]-1,4,6,7-tetrahydro-3-imidazo[1,2-a]pyridin-6-yl-5H-pyrazolo[4,3-c]pyridine-5-carboxamide], the pIC50 is 6.00 to 7.00.

As to `CCn1cc(Cl)c(NC(=O)C2CCc3[nH]nc(-c4ccncc4)c3C2)n1` (stereo not shown) [Compound 2, N-(4-chloro-1-ethyl-1H-pyrazol-3-yl)-4,5,6,7-tetrahydro-3-(4-pyridinyl)-1H-indazole-5-carboxamide], the pIC50 is 4.00 to 6.00.

As for `COc1cccc(CC(=O)N2CCc3[nH]nc(-c4ccncc4)c3C2)c1` [Compound 3, 4,5,6,7-tetrahydro-5-[(3-methoxyphenyl)acetyl]-3-(4-pyridinyl)-1H-pyrazolo[4,3-c]pyridine], the pIC50 was 4.00 to 6.00.

`Nc1nc(CC(=O)N2CCc3[nH]nc(-c4ccncc4)c3C2)cs1` [Compound 5, 5-[(2-amino-4-thiazolyl)-acetyl]-4,5,6,7-tetrahydro-3-(4-pyridinyl)-1H-pyrazolo[4,3-c]pyridine] showed a pIC50 of 4.00 to 6.00.

In turn, `Cn1cnc(CC(=O)N2CCc3[nH]nc(-c4ccncc4)c3C2)c1` [Compound 6, 4,5,6,7-tetrahydro-5-[(1-methyl-1H-imidazol-4-yl)acetyl]-3-(4-pyridinyl)-1H-pyrazolo[4,3-c]pyridine] had a pIC50 of 4.00 to 6.00.

As for `O=C(Cc1cccs1)N1CCc2[nH]nc(-c3ccncc3)c2C1` [Compound 7, 4,5,6,7-tetrahydro-3-(4-pyridinyl)-5-(2-thienylacetyl)-1H-pyrazolo[4,3-c]pyridine], the pIC50 was 4.00 to 6.00.

`O=C(Cc1ccccc1Cl)N1CCc2[nH]nc(-c3ccncc3)c2C1` [Compound 8, 5-[(2-chlorophenyl)acetyl]-4,5,6,7-tetrahydro-3-(4-pyridinyl)-1H-pyrazolo[4,3-c]pyridine]: the pIC50 is 6.00 to 7.00.

On to `O=C(Cc1cccc(Br)c1)N1CCc2[nH]nc(-c3ccncc3)c2C1` [Compound 9, 5-[(3-bromophenyl)acetyl]-4,5,6,7-tetrahydro-3-(4-pyridinyl)-1H-pyrazolo[4,3-c]pyridine], for which the pIC50 was 6.00 to 7.00.

As for `COc1ccccc1CC(=O)N1CCc2[nH]nc(-c3ccncc3)c2C1` [Compound 10, 4,5,6,7-tetrahydro-5-[(2-methoxyphenyl)acetyl]-3-(4-pyridinyl)-1H-pyrazolo[4,3-c]pyridine], the negative-log IC50 (pIC50) is 4.00 to 6.00.

Regarding `Cc1nc(CC(=O)N2CCc3[nH]nc(-c4ccncc4)c3C2)c(C)s1` [Compound 11, 5-[(2,5-dimethyl-4-thiazolyl)acetyl]-4,5,6,7-tetrahydro-3-(4-pyridinyl)-1H-pyrazolo[4,3-c]pyridine], the pIC50 is 4.00 to 6.00.

As for `CC1(C(=O)Nc2ccccc2OCc2cccnc2)CCc2[nH]nc(-c3ccncc3)c2C1` (stereo not shown) [Compound 14, 4,5,6,7-tetrahydro-5-methyl-3-(4-pyridinyl)-N-[2-(3-pyridinylmethoxy)phenyl]-1H-indazole-5-carboxamide], the pIC50 is 4.00 to 6.00.

With `COc1ccccc1NC(=O)C1(C)CCc2[nH]nc(-c3ccncc3)c2C1` (stereo not shown) [Compound 15, 4,5,6,7-tetrahydro-N-(2-methoxyphenyl)-5-methyl-3-(4-pyridinyl)-1H-indazole-5-carboxamide], the pIC50 was 4.00 to 6.00.

`CC(C)C(Cn1ccnc1)NC(=O)C1(C)CCc2[nH]nc(-c3ccncc3)c2C1` (stereo not shown) [Compound 16, 4,5,6,7-tetrahydro-N-[1-(1H-imidazoL-1-ylmethyl)-2-methylpropyl]-5-methyl-3-(4-pyridinyl)-1H-indazole-5-carboxamide] gave a pIC50 of 4.00 to 6.00.

With `CC1(C(=O)Nc2ccccc2OC(F)(F)F)CCc2[nH]nc(-c3ccncc3)c2C1` (stereo not shown) [Compound 17, 4,5,6,7-tetrahydro-5-methyl-3-(4-pyridinyl)-N-[2-(trifluoromethoxy)phenyl]-1H-indazole-5-carboxamide], the negative logarithm of the IC50 (pIC50) was 4.00 to 6.00.

`COc1ncccc1NC(=O)C1(C)CCc2[nH]nc(-c3ccncc3)c2C1` (stereo not shown) [Compound 18, 4,5,6,7-tetrahydro-N-(2-methoxy-3-pyridinyl)-5-methyl-3-(4-pyridinyl)-1H-indazole-5-carboxamide] showed a pIC50 of 4.00 to 6.00.

With `CN(C)CCOc1ccccc1NC(=O)C1(C)CCc2[nH]nc(-c3ccncc3)c2C1` (stereo not shown) [Compound 19, N-[2-[2-(dimethylamino)-ethoxy]phenyl]-4,5,6,7-tetrahydro-5-methyl-3-(4-pyridinyl)-1H-indazole-5-carboxamide], the pIC50 was 4.00 to 6.00.

On to `CC1(C(=O)Nc2ccccc2OCC2CCCO2)CCc2[nH]nc(-c3ccncc3)c2C1` (stereo not shown) [Compound 20, 4,5,6,7-tetrahydro-5-methyl-3-(4-pyridinyl]-N-[2 [(tetrahydro-2-furanyl)-methoxy]phenyl]-1H-indazole-5-carboxamide], for which the pIC50 is 4.00 to 6.00.

In turn, `CC1(C(=O)Nc2ccccc2OCCN2CCCCC2)CCc2[nH]nc(-c3ccncc3)c2C1` (stereo not shown) [Compound 21, 4,5,6,7-tetrahydro-5-methyl-N-[2-[2-(1-piperidinyl)ethoxy]-phenyl]-3-(4-pyridinyl)-1H-indazole-5-carboxamide] had a pIC50 of 4.00 to 6.00.

On to `CN(C)c1ccc(CC(=O)N2CCc3[nH]nc(-c4ccncc4)c3C2)cc1` [Compound 22, 5[[4-(dimethylamino)-phenyl]acetyl]-4,5,6,7-tetrahydro-3-(4-pyridinyl)-1H-pyrazolo[4,3-c]pyridine], for which the pIC50 was 6.00 to 7.00.

With `COc1ccc(OC)c(CC(=O)N2CCc3[nH]nc(-c4ccncc4)c3C2)c1` [Compound 23, 5-[(2,5-dimethoxyphenyl)-acetyl]-4,5,6,7-tetrahydro-3-(4-pyridinyl)-1H-pyrazolo[4,3-c]pyridine], the pIC50 was 6.00 to 7.00.
